According to US6372727B1, “Metalloporphyrin treatment of neurologic disease” (UAB Research Foundation, priority 1999, dated 2002):

Columns and labels:
[1] = system: ALS-SOD1 (G93A) transgenic mice; conditions: cited from earlier work
[2] = Peroxynitrite-mediated nitration of GYA peptide; assay type: biochemical; conditions: 2 mM GYA, 10 μM MP or SOD subunit, 1 mM CO2, pH 7.4, 37° C.
Procedure: Nitration efficiency, defined as the moles of nitrated GYA peptide formed per mole of peroxynitrite added, was determined at a fixed concentration of 10 μM MP or Cu,Zn SOD subunit, or 1 mM CO2 as described below. Increasing amounts of peroxynitrite were added in a sequential manner in order to determine whether nitration efficiency varied with concentration and to determine whether nitration catalysis was maintained with multiple additions (see INSET). Nitration efficiency was calculated for each peroxynitrite addition; the values shown are the average of all nine peroxynitrite additions. Absorbance changes were monitored simultaneously at 380, 430, and 460 nm.
For nitration of GYA peptide (see FIG. 6), reaction solutions contained 2 mM GYA and 10 μM of the indicated MP in 1.4 ml of 0.1 M potassium phosphate, pH 7.4 at 37° C. Comparisons with two previously characterized nitration catalysts, human Cu,Zn superoxide dismutase (hCu,Zn SOD) and carbon dioxide, were made using 10 μM of SOD subunit and 25 mM potassium bicarbonate, respectively, which was pH-adjusted to 7.4. This level of bicarbonate results in rapid saturation of the solution with carbon dioxide (˜1 mM). Solutions were placed into a rapidly stirred cuvette and nine bolus additions (50 μM×3, 100 μM×3, and 200 μM×3) of peroxynitrite were made sequentially while the absorbance was monitored. Increasing amounts of peroxynitrite were added in a sequential manner in order to determine whether nitration efficiency varied with concentration and to determine whether nitration catalysis was maintained with multiple additions (see FIG. 6 inset). Nitration efficiency was defined as the amount of nitropeptide formed per amount of peroxynitrite added and was calculated for each peroxynitrite addition; the values shown are the average of all nine peroxynitrite additions. The absorbance changes associated with nitrotyrosine peptide production were monitored simultaneously at 380, 430, and 460 nm. The extinction coefficients for nitrated GYA at pH 7.4 are 4,400 M^−1cm^−1 at 430 nm and 2,200 M^−1cm^−1 at both 380 and 460 nm. […] Wavelengths used to quantify nitrotyrosine production were chosen to minimize interference by the particular metalloporphyrin used. Experiments using HPA as a nitration target (FIG. 7) contained 8 mM HPA in either 0.1 M potassium phosphate, pH 7.4 or 0.1 M sodium borate, pH 9.1.
The relative abilities of several MPs to enhance nitration of the tripeptide GYA was compared using 10 μM MP and sequential bolus additions of 50 μM (×3), 100 μM (×3), and 200 μM (×3)peroxynitrite (FIG. 6, inset).

[3] = references (43), (5); cited from earlier work
bovine serum albumin = conditions: reference (35); cited from earlier work

Nc1nc2ccc(OC(F)(F)F)cc2s1 [Rilutek, riluzole]
extension of lifespan [1]: about 7 days

Cu,Zn superoxide dismutase: human Cu,Zn superoxide dismutase, previously characterized endogenous nitration catalyst
enhancement of nitration yield [2]: 2 fold
rate of reaction with superoxide [3]: 2e+09 M⁻¹ s⁻¹

iron(III)-tetra-(2,4,6,-trimethyl-3-,3-disulfonatophenyl)-porphyrin [FeTMPS]
nitration of tyrosine residues in bovine serum albumin (bovine serum albumin): inhibited
